Source: ChEMBL document CHEMBL1208691, “Synthesis of polyhalo acridones as pH-sensitive fluorescence probes” (Bioorg Med Chem Lett, 2010)
In brackets after ≈: the same amount, converted by molar mass.

Columns and labels:
Type in all cases: functional, cell-based
K562 = assay: Cytotoxicity against human K562 cells by MTT assay
HL-60 = assay: Cytotoxicity against human HL60 cells by MTT assay
A-431 = assay: Cytotoxicity against human A431 cells by MTT assay
HepG2 = assay: Cytotoxicity against human HepG2 cells by MTT assay
SK-OV-3 = assay: Cytotoxicity against human SKOV3 cells by MTT assay

SMILES	IC50 (K562) [mg/L]	IC50 (HL-60) [mg/L]	IC50 (A-431) [mg/L]	IC50 (HepG2) [mg/L]	IC50 (SK-OV-3) [mg/L]
NC(=O)c1c(Cl)c(Cl)c2[nH]c3ccccc3c(=O)c2c1Cl	7.7 (≈ 22.5 µM)	5.7 (≈ 16.7 µM)	1.2 (≈ 3.51 µM)	1.9 (≈ 5.56 µM)	28 (≈ 82 µM)
NC(=O)c1c(F)c(Cl)c2[nH]c3ccccc3c(=O)c2c1F	0.2 (≈ 0.648 µM)	0.2 (≈ 0.648 µM)	0.08 (≈ 0.259 µM)	0.2 (≈ 0.648 µM)	4 (≈ 13 µM)
NC(=O)c1c(F)c(F)c2[nH]c3ccccc3c(=O)c2c1F	4.5 (≈ 15.4 µM)	2 (≈ 6.84 µM)	0.05 (≈ 0.171 µM)	6.5 (≈ 22.2 µM)	4.5 (≈ 15.4 µM)
NC(=O)c1c(F)c(Cl)c2[nH]c3ccc(Cl)cc3c(=O)c2c1F	3 (≈ 8.74 µM)	16.6 (≈ 48.4 µM)	0.3 (≈ 0.874 µM)	3.4 (≈ 9.91 µM)	5.3 (≈ 15.4 µM)
NC(=O)c1c(F)c(F)c2[nH]c3ccc(Cl)cc3c(=O)c2c1F	2.7 (≈ 8.27 µM)	1.3 (≈ 3.98 µM)	0.3 (≈ 0.918 µM)	4.3 (≈ 13.2 µM)	3.9 (≈ 11.9 µM)
